In patent US7547728B2, “Treating muscle wasting with selective androgen receptor modulators” (priority 2001, dated 2009):
Where “and” joins values, the source holds several entries; their conditions need not be identical. Equal values may be shown once. Read-outs that look alike come from different tables or passages of the source.

Tests used:
[1] = test system: levator ani muscle; test: Anabolic activity: levator ani muscle weight in male rats; type: in vivo, rat; settings: for Levator ani muscle weight compared with intact controls: castrated male rats, 0.1-1 mg/day (FIG. 7); for ED50 / Emax (% of Intact Control) / Relative Afficacy / Relative Potency: levator ani muscle; for ED50 / Emax (% of Intact Control): dose response 0.1-1.0 mg/day; for Relative Afficacy / Relative Potency: relative to TP
From the text: (§1) Male Sprague-Dawley rats were purchased from Harlan Biosciences (Indianapolis, Ind.). […] One day before the initiation of drug treatment, groups 4 through 6 and groups 7 through 9 received unilateral or bilateral orchidectomy, respectively, via a midline scrotal incision. […] All drugs given to animals were freshly prepared as solutions in polyethylene glycol 300 (PEG 300). Groups 4 and 7 received treatment with vehicle alone (i.e., PEG 300). […] The ventral prostates, seminal vesicles, and levator ani muscle were removed and weighed. Osmotic pumps were also removed from animals to check for correct pump operation. […] Statistical analyses of parameters from complete blood count or serum chemical profiling, wherever applicable, were performed by single-factor ANOVA with the alpha value set a priori at p<0.05.

[2] = biological target: T1, androgen receptor (Rattus norvegicus, UniProt P15207); test: biochemical; type: binding; settings: for RBA (%): relative binding affinity
T1 construct: from tissue
T1 sequence (P15207 1-902): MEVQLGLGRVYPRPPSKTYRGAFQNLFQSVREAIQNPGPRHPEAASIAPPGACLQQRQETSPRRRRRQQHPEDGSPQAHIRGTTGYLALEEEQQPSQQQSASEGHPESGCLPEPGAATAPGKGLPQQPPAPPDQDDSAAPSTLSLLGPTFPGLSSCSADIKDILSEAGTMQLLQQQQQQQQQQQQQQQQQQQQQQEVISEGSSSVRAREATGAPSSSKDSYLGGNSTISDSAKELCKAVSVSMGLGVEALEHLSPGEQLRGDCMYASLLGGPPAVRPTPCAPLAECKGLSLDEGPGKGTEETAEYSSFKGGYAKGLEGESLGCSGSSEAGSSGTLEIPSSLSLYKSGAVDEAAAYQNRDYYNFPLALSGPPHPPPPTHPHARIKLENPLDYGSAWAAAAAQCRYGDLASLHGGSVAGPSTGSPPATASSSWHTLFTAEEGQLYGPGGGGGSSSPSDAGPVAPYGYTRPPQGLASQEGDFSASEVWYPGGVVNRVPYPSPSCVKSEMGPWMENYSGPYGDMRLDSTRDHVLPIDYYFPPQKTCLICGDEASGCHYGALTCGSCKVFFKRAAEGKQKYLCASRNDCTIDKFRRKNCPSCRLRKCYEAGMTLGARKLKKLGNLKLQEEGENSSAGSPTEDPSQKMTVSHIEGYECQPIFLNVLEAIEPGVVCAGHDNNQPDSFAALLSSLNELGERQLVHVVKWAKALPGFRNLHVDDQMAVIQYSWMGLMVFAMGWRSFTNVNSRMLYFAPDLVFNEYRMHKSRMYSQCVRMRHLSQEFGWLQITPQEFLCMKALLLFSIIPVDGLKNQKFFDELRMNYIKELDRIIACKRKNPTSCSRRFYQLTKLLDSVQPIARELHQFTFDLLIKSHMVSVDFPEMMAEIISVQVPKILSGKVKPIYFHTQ

[3] = test system: seminal vesicles; test: Androgenic activity: seminal vesicle weight in male rats; type: in vivo, rat; settings: for ED50 / Emax (% of Intact Control) / Relative Afficacy / Relative Potency: seminal vesicle; for ED50 / Emax (% of Intact Control) / Seminal Vesicles weight: castrated rats; for ED50 / Emax (% of Intact Control): dose response 0.1-1.0 mg/day; for Relative Afficacy / Relative Potency: relative to TP; for Agonist character in seminal vesicles: male rats, from organ weights
From the text: as §1

[4] = test system: MHC II b mRNA; test: MHC IIb mRNA expression by RT-PCR in masseter muscle of intact female rats; type: in vivo, rat
Method: Rat muscle tissue was harvested in 5 volumes of RNA later solution (Ambion, cat.# 7020) and stored at 4° C. until used for RNA isolation. Total RNA was isolated in the FastPrep FP120 instrument (Qbiogene) using RNAqueous-4PCR kit (Ambion, cat # 1914) in combination with FastRNA green tubes (Qbiogene, cat.# 6040-600) at settings for time at 45 sec and speed at 6.5.1 ug of total RNA was used for reverse transcription using Retroscript kit (Ambion, cat# 1710). The mixture was incubated at 42° C. for 60 min, followed by 10 min at 92° C., and then chilled on ice and used in PCR reaction.
Relatively quantitative RT-PCR was used to analyze expression of MHC mRNA in rat musculus masseter (MM) and levator ani (LA). As an internal standard 18S ribosomal RNA was used (QuantumRNA classic 18S Internal Standard, Ambion, cat.# 1716). Linear range of PCR reaction for all primers as well as optimal ratio of 18S primers to competitors to achieve the same level of amplification as the genes of interest was determined.
Primers were obtained from IDT based on the recently published design (Wright et al., J. Appl. Phys. 1997;83:1389), with the following sequence: 5′[…]3′. […]
5 units of Taq DNA polymerase (Roche, cat# 1146165), 200 μM of each dNTP (Invitrogen, cat.#R725-01), 0.2 μM each MHC primer (IDT), 1 μl of cDNA from reverse transcription reaction and 4 μl of 18S primers: competitors mixture were used in 50 μl PCR reaction. […] PCR products were analyzed by agarose gel electrophoresis [20-μl aliquots of a 50-μl PCR reaction loaded on a 1.5% agarose gel (in 1× Tris-Acetate-EDTA buffer) containing 0.2 μg/ml ethidium bromide] to visualize the PCR products. […] Pictures were scanned and the volume of the optical density (OD) of a DNA band was determined by the Image Quant software (Molecular Dynamics), and the background was subtracted (so local background was directly proportional to the amount of DNA over a wide range). […] The content of each experimental group MHC gene was calculated as a percentage of the MHC value in the control group (Table 2).

[5] = test system: levator ani; test: Levator ani evaluation in androgen-treated intact female rats; type: in vivo, rat; settings: 14 and 28 days treatment
From the text: In these same rats, the levator ani was dissected and evaluated for the expression pattern of MHC family members. […] Physiol. 75(5): 2337-2340, 1993].

[6] = test system: prostate; test: Androgenic activity: prostate weight in male rats; type: in vivo, rat; settings: for Agonist character in prostate: male rats, from organ weights
From the text: as §1

[7] = Adverse pharmacologic effects in rats of varying hormonal status; type: in vivo, rat; settings: male rats, 0.5 mg/day, 14 days
[8] = test system: FSH, LH and testosterone; test: Plasma concentrations of FSH, LH and testosterone in treated male rats; type: in vivo, rat; settings: data not shown
[9] = test system: MHC IIb mRNA; test: MHC IIb mRNA expression in masseter and gastrocnemius muscle of intact male rats; settings: TP 5 mg/kg/day, Compound V 1 mg/kg/day
[10] = castrated rats, 1 mg/day, daily injection
[11] = prostate, castrated rats, dose response 0.1-1.0 mg/day

## C[C@](O)(COc1ccc(I)cc1)C(=O)Nc1ccc([N+](=O)[O-])c(C(F)(F)F)c1 [Compound IX]
[1]
  Levator ani muscle weight compared with intact controls: close to those of the intact controls
[2]
  RBA (%): 2.7%

## C[C@](O)(COc1ccc(Br)cc1)C(=O)Nc1ccc([N+](=O)[O-])c(C(F)(F)F)c1 [Compound VIII]
[1]
  Levator ani muscle weight compared with intact controls: close to those of the intact controls
[2]
  RBA (%): 5.3%

## C[C@](O)(COc1ccc(Cl)cc1)C(=O)Nc1ccc([N+](=O)[O-])c(C(F)(F)F)c1 [Compound VII]
[1]
  Levator ani muscle weight compared with intact controls: exceeding those of intact controls

## C[C@](O)(COc1ccc(F)cc1)C(=O)Nc1ccc([N+](=O)[O-])c(C(F)(F)F)c1 [Compound VI]
[3]
  ED50: 0.38 ± 0.26 mg/day
  Emax (% of Intact Control): 12.7 ± 3.1 % of Intact Control
  Relative Afficacy: 0.18
  Relative Potency: 0.32
[1]
  Levator ani muscle weight compared with intact controls: close to those of the intact controls
  Relative Afficacy: 0.72
  Relative Potency: 0.34
[1]; castrated rats
  ED50: 0.44 ± 0.01 mg/day
  Emax (% of Intact Control): 74.9 ± 0.4 % of Intact Control

## CC(=O)Nc1ccc(OC[C@](C)(O)C(=O)Nc2ccc([N+](=O)[O-])c(C(F)(F)F)c2)cc1 [Compound V]
[4]
  MHC IIb expression, % of untreated control: 124% and 124.5%
[5]
  Presence of levator ani muscle after treatment: had a muscle present in the location expected for the levator ani
[6]
  Agonist character in prostate: partial agonist
[3]
  Agonist character in seminal vesicles: partial agonist
  ED50: 0.55 ± 0.02 mg/day
  Emax (% of Intact Control): 28.5 ± 0.8 % of Intact Control
[1]; male rats, from organ weights
  Agonist character in levator ani muscle: full agonist
[7]
  Adverse pharmacologic effects: No adverse pharmacologic effects were observed
[8]
  Changes in plasma concentrations of FSH, LH and testosterone: absence of any significant changes
[9]; gastrocnemius muscle
  MHC type IIb transcription, % of untreated control: 162(±54) %
[9]; masseter muscle
  MHC type IIb transcription, % of untreated control: 117(±13) %

## C[C@](O)(COc1c(F)c(F)c(F)c(F)c1F)C(=O)Nc1ccc([N+](=O)[O-])c(C(F)(F)F)c1 [Compound XII]
[6]; [10]
  Prostate weight: 7.2 ± 1.4 % of intact
[6]
  Agonist character in prostate: weak partial agonist
[3]; 1 mg/day, daily injection
  Seminal Vesicles weight: 7.2 ± 0.9 % of intact
[3]
  Agonist character in seminal vesicles: weak partial agonist
[1]; castrated rats, 1 mg/day via osmotic pump
  Levator Ani Muscle weight: 122.5±10.4 % of intact
[2]
  RBA (%): 13.3%

## C[C@](O)(COc1ccc(F)c(F)c1)C(=O)Nc1ccc([N+](=O)[O-])c(C(F)(F)F)c1 [Compound XI]
[6]; [10]
  Prostate weight: 33.1 ± 8.5 % of intact
[6]
  Agonist character in prostate: weak partial agonist
[3]; 1 mg/day, daily injection
  Seminal Vesicles weight: 23.6 ± 8.8 % of intact
[3]
  Agonist character in seminal vesicles: weak partial agonist
[2]
  Ki: 3.4 ± 0.56 nM

## C[C@](O)(COc1ccc(F)cc1)C(=O)Nc1ccc(C#N)c(C(F)(F)F)c1 [Compound X]
[6]; castrated rats, 0.10 mg/day
  Prostate weight: 6.4 ± 0.82 % of intact
[6]; castrated rats, 0.50 mg/day
  Prostate weight: 6.2 ± 0.56 % of intact
[6]; castrated rats, 0.75 mg/day
  Prostate weight: 7.6 ± 0.74 % of intact
[6]; castrated rats, 1.00 mg/day
  Prostate weight: 8.7±1.39 % of intact
[6]
  Agonist character in prostate: weak partial agonist
[3]; 0.10 mg/day
  Seminal Vesicles weight: 8.8 ± 1.18 % of intact
[3]; 0.50 mg/day
  Seminal Vesicles weight: 9.3 ± 1.57 % of intact
[3]; 0.75 mg/day
  Seminal Vesicles weight: 9.8 ± 3.65 % of intact
[3]; 1.00 mg/day
  Seminal Vesicles weight: 10.7±0.91 % of intact
[3]
  Agonist character in seminal vesicles: weak partial agonist
[1]; castrated rats, 0.10 mg/day
  Levator Ani weight: 54.9 ± 5.77 % of intact
[1]; castrated rats, 0.50 mg/day
  Levator Ani weight: 55.0 ± 9.23 % of intact
[1]; castrated rats, 0.75 mg/day
  Levator Ani weight: 68.9 ± 8.46 % of intact
[1]; castrated rats, 1.00 mg/day
  Levator Ani weight: 75.2±9.51 % of intact

## CCC(=O)O[C@H]1CC[C@H]2[C@@H]3CCC4=CC(=O)CC[C@]4(C)[C@H]3CC[C@]12C [TP, testosterone propionate, reference compound]
[4]
  MHC IIb expression, % of untreated control: 141.5%
[4]; listed as testosterone propionate
  MHC IIb expression, % of untreated control: 142%
[5]
  Presence of levator ani muscle after treatment: had a muscle present in the location expected for the levator ani
[6]; [11]
  ED50: 0.13 ± 0.03 mg/day
  Emax (% of Intact Control): 120.6 ± 13.4 % of Intact Control
[6]; prostate, relative to TP
  Relative Afficacy: 1.00
  Relative Potency: 1.00
[3]
  ED50: 0.12 ± 0.02 mg/day
  Emax (% of Intact Control): 70.0 ± 18.8 % of Intact Control
  Relative Afficacy: 1.00
  Relative Potency: 1.00
[1]; castrated rats
  ED50: 0.15 ± 0.03 mg/day
  Emax (% of Intact Control): 104.2 ± 10.1 % of Intact Control
[1]
  Relative Afficacy: 1.00
  Relative Potency: 1.00
[9]; gastrocnemius muscle
  MHC type IIb transcription, % of untreated control: 139(±47) %
[9]; masseter muscle
  MHC type IIb transcription, % of untreated control: 120(±14) %
